Laboratory results published in patent publication US6506793B2, “Citral acetal” (Kao Corporation, priority 2000, dated 2003).

Test system: smell (isovaleric acid) of the socks
Test: Organoleptic evaluation of smell of socks after application onto a bare foot
Format: in vivo, human
Design: key: 5: Strong; 4: Slightly strong; 3: Moderate; 2: Slightly weak; 1: Weak; 0: Does not smell
Details: 2 g of 0.1% solution in ethanol on a bare foot; smell (isovaleric acid) of socks after 8 hours
Text: The present compounds 1 to 3 obtained in Examples 1 to 3, as well as commercial citral propylene glycol acetal (CITRAL PGA produced by Inoue Koryo Co., Ltd.) and citral hexylene glycol acetal (CITRAL HGA produced by Inoue Koryo Co., Ltd.) as comparative compounds, were used to prepare 0.1% solutions in ethanol respectively, and 2 g solution was applied onto a bare foot. 2 g ethanol (containing no test sample) was applied onto the other bare foot (blank), then socks were put on the feet respectively, and the extent of smell (isovaleric acid) of the socks after 8 hours was subjected to organoleptic evaluation by one skilled examiner in the following 6-level criteria.

## CCCCCCCCOCC1COC(C=C(C)CCC=C(C)C)O1 (centres unmarked) [Present Compound 2, citral n-octyl glyceryl ether acetal]
  Strength of Smell: 2

## CCCCC(CC)COCC1COC(C=C(C)CCC=C(C)C)O1 (centres unmarked) [Present Compound 3, citral 2-ethyl hexyl glyceryl ether acetal]
  Strength of Smell: 1

## CCCCCOCC1COC(C=C(C)CCC=C(C)C)O1 (centres unmarked) [Present Compound 1, citral pentyl glyceryl ether acetal]
  Strength of Smell: 2

## CC(C)=CCCC(C)=CC1OC(C)CC(C)(C)O1 (centres unmarked) [CITRAL HGA, citral hexylene glycol acetal, reference compound]
  Strength of Smell: 5

## CC(C)=CCC/C(C)=C/C1OCC(C)O1 (centres unmarked) [CITRAL PGA, citral propylene glycol acetal, reference compound]
  Strength of Smell: 5
